Assays:
[1] = In vivo pharmacokinetics studies of S10 (iv, ip, per oral); parameters: species or system male BALB/c Mice; details: male, BALB/c, mouse, ip and per oral administration
Procedure: The bioavailability of S10 by oral and intraperitoneal injection in vivo was investigated. […] In a second delivery regimen, treatment was performed per orally (20 mg/kg) twice daily for five days. Treatment started at a terminal stage of GBM, i.e. six weeks after engraftment of U3013M GSCs and median survival from the time of treatment initiation and the Hazard ratio were scored.
In vivo pharmacokinetic studies of S10 were performed at SAI Life Sciences Ltd., Hyderabad, India to determine the plasma pharmacokinetics and brain distribution of S10 following a single intravenous, intraperitoneal and oral administration in male BALB/c Mice. Blood samples (approximately 60 μL) were collected from retro-orbital plexus of each mouse. The plasma and brain samples were obtained at 0.08, 0.25, 0.5, 1, 2, 4, 8, 24, 48, 72 and 144 hr (i.v.); 0.08, 0.25, 0.5, 1, 2, 4, 8 and 24 hour (i.p.) and 0.25, 0.5, 1, 2, 4, 6, 8, 24, 48, 72 and 144 hr (p.o.) post dosing. Plasma was harvested by centrifugation of blood and stored at −70° C. until analysis. Immediately after collection of blood, brain samples were collected from each mouse. Tissue samples (brain) were homogenized using ice-cold phosphate buffer saline (pH 7.4) and homogenates were stored below −70° C. until analysis. […] Plasma and brain samples were quantified using LC-MS/MS method LLOQ=1.03 ng/mL for plasma and LLOQ=10.25 ng/mL for brain. […]

[2] = Tolerance of oral dosing of S10; assay type: in vivo; details: 20 mg/kg/day oral gavage for one week, weight loss and signs of distress
[3] = test system: S10-resistant GSCs (U3013MG); assay: Viability of S10-resistant GSCs surviving the shRNA screen; assay type: cell-based; details: Homo sapiens, cells surviving 14 μM S10 after shRNA library transduction, read-out: EC50 on GSC viability, S10-resistant GSCs
Source text: A genome wide screen with shRNA libraries was used to identify pathways for S10 induced macropinocytosis. The approach was based on the idea that depleting a key factor in the pathway should render GSCs refractive to S10 induced death. Three different DECIPHER pooled lentiviral shRNA libraries consisting of 82500 shRNA covering 15377 genes grouped into Human Module 1 (genes associated with various signaling pathways), Human Module 2 (disease-associated genes) and Human Module 3 (genes associated with cell surface, extracellular and DNA binding), were used to transduce U3013MG GSCs. Four days later, 14 μM S10 was added for one day after which cells were cultured in standard medium for five month. Surviving cells were thereafter dissociated and further expanded. […] Phospho-MKK4 increased within 5 min of S10 exposure and remained at similar levels for at least 26 hrs of stimulation. Abrogation of MAP2K4 activity by five independent shRNAs led to marked increase of the EC50 viability value of S10-treated GSC. […] MKK4 was thereafter confirmed as a required protein for S10 induced macropinocytosis. […] Thus, the distinctive feature of susceptibility to macropinocytosis and death in GSCs require MKK4 activity.
GSCs grown to 70% confluency were transduced by DECIPHER pooled lentiviral shRNA libraries consisting of Human Module 1, 2 and 3 using earlier described protocols (Pasini et al., 2008). […]

human fibroblasts = assay: Viability (ATP) of fibroblasts in presence of S10; assay type: cell-based; details: Fibroblast
Procedure: The ability of Examples S1-S23 to selectively induce cytotoxicity in glioma/glioblastoma cancer cells or glioma/glioblastoma cancer stem cells was determined by quantification of ATP production in glioma stem cell line U3013 in the presence of using CellTiterGlo reagent (Promega). Cells were exposed to compound in serial dilution in the range 1 nM to 50 µM for 24 hours and viability assessed with respect to negative control (dmso, no cell death) and positive control (staurosporine, full cell death). […] The EC50 of S10 remained largely similar at 2, 3 and 4 days of incubation. […] The individual isomers (S21-S23) of racemic S10 were evaluated in order to determine the enantiospecific pharmacology of the individual isomers.
For measuring cell viability, cytotoxicity and apoptosis in GSC/fibroblast/mGlia cells were grown in 384-well microtiter plates using procedure described above. […] Cell viability, cytotoxcity and apoptosis were measured using CellTiter-Glo® Luminescent Cell Viability Assay (Promega), CytoTox-Glo Cytotoxicity Assay and […], according to manufacturer's instructions. […] Luminescence was measured using a Victor3 FA (Perkin Elmer) microtiterplate reader and the level of released Caspase 3/7 quantified relative to control using GraphPad Prism (v6.02) software.

With OC(c1cc(-c2ccc(Cl)cc2)nc2ccccc12)C1CCCCN1 (racemic) [Compound S10, (2-(4-chlorophenyl)quinolin-4-yl)(piperidin-2-yl)methanol] the bioavailability ([1]; plasma, following iv, read-out: bioavailability F) was 69%, the half-life ([1]; plasma and brain exposure following iv, read-out: half-life t1/2 (converted)) was 20 h and the “tolerance of oral dosing” value [2] was “well tolerated”. For the same molecule, the EC50 [3] was 14.3 ± 1.16 µM, the EC50 (human fibroblasts; after 24 hrs) was 18.7 µM and the EC50 (human fibroblasts; at 96 hours) was 23 µM.
